Results from patent US9907601B2, “Methods and systems for chemical ablation” (Regents of the University of Minnesota, priority 2009, dated 2018).
Where two headings read alike, the source gives them in different places.

What was measured:
[1] = In vitro injection of substrate and sodium permanganate solutions into a beaker, reaction temperature by thermocouple; format: physicochemical; settings: for Average maximum temperature increase (° C.) Permanganate first / Average peak temperature (° C.) Permanganate first / Average maximum temperature increase (° C.) Simultaneous / Average peak temperature (° C.) Simultaneous / Average maximum temperature increase (° C.) Substrate first / Average peak temperature (° C.) Substrate first: substrate 1M/1 mL; for average maximum temperature: simultaneous injections, substrate 180 g/L, permanganate (1M, 1 mL)
Procedure: In vitro studies: All reagents were obtained from Sigma-Aldrich Chemical Co. (St. Louis, Mo.) unless otherwise noted. […] Exemplary reaction products of glycerol oxidation by permanganate include tartronic acid and glyceric acid (FIG. 8). Reaction temperature was measured by a thermocouple probe (type T MT-29/1; Physitemp Instruments, Clifton, N.J.) placed at the center of the beaker, with the tip submerged underneath the surface of the mixed solutions. Temperature recordings were made by a T-type thermocouple thermometer (Digi-Sense; Cole-Parmer, Vernon Hills, Ill.) at time intervals of 1 to 3 seconds from the onset of injections until the temperature dropped below 40° C. A series of different permanganate volumes (1, 2, and 3 mL) and concentrations (1 and 2M) were tested in order to study the effects of volume and concentration on temperature. Selected experiments were repeated with glucose, sucrose, maltodextrin (4-7 glucose unit average), and dextrin as substrates. The remaining substrates were different polysaccharides (starch, cellulose and glycogen) and polyvinyl alcohol. See, FIG. 9. All were used as 180 g/L (carbohydrates based on glucose) solutions and/or suspensions rather than expressing concentration in molarity due to their polymeric nature.

HuH-7 cells [2] = test system: HuH-7 cells
[3] = test system: osteosarcoma cell line 143B; format: cell-based
143B cells = assay: DNA fragmentation assay, 143B; format: cell-based, human
Procedure: (§1) Cell lysates were incubated at 37° C. for 3 hours, and the samples were centrifuged at 13,000 rpm for 30 minutes. Supernatants containing DNA were extracted with phenol-chloroform and precipitated with ethanol. Equal amounts of DNA were resolved on a 2% agarose gel containing ethidium bromide, and bands corresponding to nucleosomes were visualized under ultra violet light.

MCF-7 cells = assay: DNA fragmentation assay, MCF-7; format: cell-based, human
Procedure: as §1

HepG2 cells = settings: Castañeda and Kinne 2000; cited from earlier work
[4] = test system: breast cancer cell line MCF-7; assay: MTT cell viability assay, MCF-7
Procedure: Cells were plated in 96-well plates for the MTT assays at a concentration of 3×10^5 cells per well overnight prior to performing the assays.
Cell viability assay: Cell viability assays were performed using as a substrate the MTT reagent 3-(4,5-Dimethylthiazol-2-yl)-2,5-diphenyltetrazolium bromide (Sigma-Aldrich, St. Louis, Mo.) at a concentration of 10 μg/100 μl. Growth medium was aspirated from the wells and cells were washed twice with 1×PBS. […] One hundred μl of MTT substrate was added to each well in a 96-well plate and plates were incubated for 1 hour at 37° C. Cells were then gently washed in 1×PBS and 100 μl stop solution (acidified phenol) was added to each well. Plates were incubated again at 37° C. for 30 minutes and the colorimetric changes in the cells were measured using a plate reader at 570 nm. Only the live viable cells are able to convert yellow colored MTT reagent into purple colored formazan.

HuH-7 cells [5] = assay: DNA fragmentation assay, HuH-7; format: cell-based, human; settings: 1 M urea for 2 hours
Procedure: as §1

[6] = NaMnO4 (1M/1 mL), permanganate first
[7] = NaMnO4 (1M/1 mL), simultaneous injection
[8] = NaMnO4 (1M/1 mL), substrate first
[9] = NaMnO4 (1M/2 mL), permanganate first
[10] = NaMnO4 (1M/2 mL), simultaneous injection
[11] = NaMnO4 (1M/2 mL), substrate first
[12] = NaMnO4 (1M/3 mL), permanganate first
[13] = NaMnO4 (1M/3 mL), simultaneous injection
[14] = NaMnO4 (1M/3 mL), substrate first
[15] = NaMnO4 (2M/1 mL), permanganate first
[16] = NaMnO4 (2M/1 mL), simultaneous injection
[17] = NaMnO4 (2M/1 mL), substrate first
[18] = 3% ethanol, exposure for 2 hours

| Molecule | Average maximum temperature increase (° C.) Permanganate first [1, 6] [°C] | Average peak temperature (° C.) Permanganate first [1, 6] [°C] | Average maximum temperature increase (° C.) Simultaneous [1, 7] [°C] | Average peak temperature (° C.) Simultaneous [1, 7] [°C] | Average maximum temperature increase (° C.) Substrate first [1, 8] [°C] | Average peak temperature (° C.) Substrate first [1, 8] [°C] | Average maximum temperature increase (° C.) Permanganate first [1, 9] [°C] | Average peak temperature (° C.) Permanganate first [1, 9] [°C] | Average maximum temperature increase (° C.) Simultaneous [1, 10] [°C] | Average peak temperature (° C.) Simultaneous [1, 10] [°C] | Average maximum temperature increase (° C.) Substrate first [1, 11] [°C] | Average peak temperature (° C.) Substrate first [1, 11] [°C] | Average maximum temperature increase (° C.) Permanganate first [1, 12] [°C] | Average peak temperature (° C.) Permanganate first [1, 12] [°C] | Average maximum temperature increase (° C.) Simultaneous [1, 13] [°C] | Average peak temperature (° C.) Simultaneous [1, 13] [°C] | Average maximum temperature increase (° C.) Substrate first [1, 14] [°C] | Average peak temperature (° C.) Substrate first [1, 14] [°C] | Average maximum temperature increase (° C.) Permanganate first [1, 15] [°C] | Average peak temperature (° C.) Permanganate first [1, 15] [°C] | further results |
| --- | --- | --- | --- | --- | --- | --- | --- | --- | --- | --- | --- | --- | --- | --- | --- | --- | --- | --- | --- | --- | --- |
| OC[C@H]1O[C@@](CO)(O[C@H]2O[C@H](CO)[C@@H](O)[C@H](O)[C@H]2O)[C@@H](O)[C@@H]1O [Sucrose, sucrose] | 24.9 | 46.4 | 33.5 | 56.8 | 37.1 | 58.9 | 42.1 | 64.9 | 51.0 | 73.6 | 60.0 | 82.1 | 51.5 | 74.6 | 66.9 | 90.1 | 63.0 | 85.1 | 76.7 | 100.0 | average maximum temperature, permanganate-first ([1]; concentration of the sucrose solution (1 mL) raised to 2M, permanganate-first): 100.0 °C; average maximum temperature, simultaneous ([1]; concentration of the sucrose solution (1 mL) raised to 2M, simultaneous injection): 100.2 °C; average maximum temperature, sucrose-first ([1]; concentration of the sucrose solution (1 mL) raised to 2M, sucrose-first): 99.8 °C; Average maximum temperature increase (° C.) Simultaneous [1, 16]: 77.0 °C; Average peak temperature (° C.) Simultaneous [1, 16]: 100.2 °C; Average maximum temperature increase (° C.) Substrate first [1, 17]: 77.7 °C; Average peak temperature (° C.) Substrate first [1, 17]: 99.8 °C; average temperature increase, permanganate-first ([1]; volume of sucrose solution increased to 2 mL, permanganate-first): 44.6 °C; average temperature increase, simultaneous ([1]; volume of sucrose solution increased to 2 mL, simultaneous injection): 45.9 °C; average temperature increase, sucrose-first ([1]; volume of sucrose solution increased to 2 mL, sucrose-first): 51.0 °C |
| OCC(O)CO [Glycerol, glycerol] | 37.6 | 59.3 | 41.4 | 63.9 | 48.4 | 71.1 | 48.5 | 70.3 | 66.3 | 89.1 | 64.4 | 86.7 | 55.3 | 77.9 | 66.6 | 90.6 | 67.5 | 90.3 | 75.4 | 97.0 | Average maximum temperature increase (° C.) Simultaneous [1, 16]: 74.5 °C; Average peak temperature (° C.) Simultaneous [1, 16]: 97.4 °C; Average maximum temperature increase (° C.) Substrate first [1, 17]: 76.9 °C; Average peak temperature (° C.) Substrate first [1, 17]: 99.1 °C; average maximum temperature, permanganate first ([1]; volume of substrate (1M) raised to 2 mL, permanganate 1M, permanganate first): 54.1 °C; average maximum temperature, simultaneous ([1]; volume of substrate (1M) raised to 2 mL, permanganate 1M, simultaneous injection): 53.1 °C; average maximum temperature, substrate first ([1]; volume of substrate (1M) raised to 2 mL, permanganate 1M, substrate first): 56.7 °C |
| maltodextrin |  |  |  |  |  |  |  |  |  |  |  |  |  |  |  |  |  |  |  |  | average maximum temperature [1]: 42.5 °C |
| CCO [ethanol] |  |  |  |  |  |  |  |  |  |  |  |  |  |  |  |  |  |  |  |  | cell death (HuH-7 cells [2]; 2% ethanol, 6 hours of exposure): 50%; cytotoxicity (HuH-7 cells [2]; 4% ethanol, 2 hours): lethal; cytotoxicity (HuH-7 cells [2]; ethanol 3% (v/v)): toxic; cytotoxicity (HuH-7 cells [2]; ethanol 5% (v/v)): toxic; cells died ([3]; 1% ethanol, 24 hour exposure): > 90%; cell death [3, 18]: > 90%; apoptosis by DNA laddering (143B cells; 10% ethanol for 6 hours): A similar result; apoptosis by DNA laddering (MCF-7 cells; 10% ethanol for 6 hours): A similar result; apoptosis (HepG2 cells): induces apoptosis; cells died ([4]; 1% ethanol, 24 hour exposure): > 90%; cell death [4, 18]: > 90% |
| dextrin |  |  |  |  |  |  |  |  |  |  |  |  |  |  |  |  |  |  |  |  | average maximum temperature [1]: 51.1 °C |
| NC(N)=O [urea] |  |  |  |  |  |  |  |  |  |  |  |  |  |  |  |  |  |  |  |  | cells survived (HuH-7 cells [2]; 250 mM urea, 24 hours): 50%; cells survived (HuH-7 cells [2]; 750 mM urea, 6 hour exposure): about 50%; apoptosis by DNA laddering (HuH-7 cells [5]): induced apoptosis; apoptosis by DNA laddering (143B cells; 1 M urea for 2 hours): induced apoptosis; apoptosis by DNA laddering (MCF-7 cells; 1 M urea for 2 hours): induced apoptosis |
